The values below come from patent US20130266676A1, “TERMINALIA CHEBULA COMPOSITIONS AND METHOD OF EXTRACTING SAME” (NATREON, INC., priority 2012, published 2013).

The test system of data set [1] is HSV-1. Conditions: noncytotoxic doses, A549 human lung cells; cited from earlier work.
The test system of data set [2] is melanin. Conditions: compared with ascorbic acid, butylated hydroxyl toluene, alpha-tocopherol, arbutin and kojic acid; cited from earlier work.
Data set [3] deals with Smad pathway. Conditions: through inhibition of the Smad pathway; cited from earlier work.
Data set [4] has as its system HepG2 cells. Conditions: cited from earlier work.
For data set [5], the system named is collagen-induced arthritis. Conditions: mice; cited from earlier work.
In data set [6] the test system is PRMI-7951 melanoma cells. Particulars: cited from earlier work.
The test system of data set [7] is HCT-15, COLO-205, MDA-MB-231, DU-145 and K562 cell lines. Particulars: cited from earlier work.
For data set [8] the following is noted: compared with ascorbic acid, butylated hydroxyl toluene, alpha-tocopherol, arbutin and kojic acid; cited from earlier work.
In data set [9] the test system is LPS-stimulated RAW 264.7. Particulars: cited from earlier work.
Data set [10] can be described thus: Thermal stability during aqueous extraction at 80±5° C. (HPLC). The format is physicochemical. Particulars: different time points. As for the experimental part: In another experiment, fruit pericarp portions of T. Chebula (50 g) were pulverized and the resulting powder was extracted with distilled water (300 ml) for 12 hours, with a continuous stirring (400 RPM), separately at different temperatures 30±5° C., 40±5° C., 60±5° C. and 80±5° C. using a pressure reactor. Aliquots of the samples were withdrawn at different time intervals during extraction, spray dried and analyzed for bioactives (Chebulagic acid, Chebulinic acid and other LMwHTs) by HPLC (as discussed above). The results are incorporated in Tables 3-6. As used herein, “0 hour” extraction refers to “instant extraction,” which for the purpose of this disclosure means distilled water was added to the pulverized powder on a thermostatic water bath, stirred for 5 minutes and an aliquot of the sample withdrawn and analyzed.

Data set [11] deals with 5-LOX. Particulars: cited from earlier work.
Data set [12] deals with T1, COX-2 (Homo sapiens, UniProt P35354).
T1 sequence (P35354 18-604): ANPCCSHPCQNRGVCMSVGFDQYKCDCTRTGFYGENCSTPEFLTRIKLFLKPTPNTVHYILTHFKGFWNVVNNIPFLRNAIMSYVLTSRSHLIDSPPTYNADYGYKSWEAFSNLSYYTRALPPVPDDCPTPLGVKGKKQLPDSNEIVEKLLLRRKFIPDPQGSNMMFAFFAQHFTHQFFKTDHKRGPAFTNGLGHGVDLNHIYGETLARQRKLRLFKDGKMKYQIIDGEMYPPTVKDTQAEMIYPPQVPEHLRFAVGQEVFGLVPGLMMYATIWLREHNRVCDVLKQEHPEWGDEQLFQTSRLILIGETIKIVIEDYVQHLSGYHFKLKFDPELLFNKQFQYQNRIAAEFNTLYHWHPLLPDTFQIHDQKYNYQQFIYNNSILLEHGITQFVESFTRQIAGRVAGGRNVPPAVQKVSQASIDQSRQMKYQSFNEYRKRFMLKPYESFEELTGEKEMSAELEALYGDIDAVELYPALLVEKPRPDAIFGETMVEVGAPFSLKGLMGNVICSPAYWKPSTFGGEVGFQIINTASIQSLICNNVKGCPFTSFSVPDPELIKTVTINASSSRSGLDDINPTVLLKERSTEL
Conditions: cited from earlier work.

Data set [13] concerns COX-1. Conditions: cited from earlier work.
In data set [14] the test system is MCF-7, S115, HOS-1, PC-3 and PNT1A cell lines. Conditions: cited from earlier work.
For data set [15], the target named is HIV rgp120 to CD4 (UniProt P01730+P04578). Conditions: cited from earlier work.
For data set [16], the system named is stimulated human peripheral blood lymphocytes. Conditions: concentrations ten times above maximal effective concentration; cited from earlier work.
Data set [17] has as its system human cervical carcinoma HeLa cells. Particulars: cited from earlier work.
The test system of data set [18] is K562 cells. Particulars: concentration-dependent; cited from earlier work.
The conditions of data set [19]: rats; cited from earlier work.
The test system of data set [20] is cytotoxic T-lymphocyte (CTL)-mediated cytotoxicity. Conditions: cited from earlier work.

Broadly, the IC50 is the midpoint of a concentration-inhibition curve.

For `O=C(O)CC1C(=O)OC2C3COC(=O)c4cc(O)c(O)c(O)c4-c4c(cc(O)c(O)c4O)C(=O)OC2C(OC(=O)c2cc(O)c(O)c4c2C1C(O)C(=O)O4)C(OC(=O)c1cc(O)c(O)c(O)c1)O3` [Chebulagic acid, beta-1-O-galloyl-2,4-chebuloyl-3,6-(R)-hexahydroxydiphenoyl-D-glucose], the “inhibition of HSV-1 entry” value in data set [1] was “inhibit HSV-1 entry”. Besides, the “melanin inhibitory activity versus reference agents” value in [2] was “stronger”. Moreover, the antifibrotic activity result in data set [3] was “antifibrotic activity”. Also, the “enhancement of cytotoxicity of doxorubicin” value in data set [4] (HepG2 cells) is 20 fold. In addition, in data set [4], the “interaction with doxorubicin by Combination Index (CI), cell growth inhibition” value is “strong synergistic interaction”. The “onset and progression of collagen-induced arthritis” value in data set [5] is “suppress the onset and progression”. The cytotoxicity entry in [6] was “cytotoxic properties”. In addition, the anti-proliferative activity entry in [7] is listed as “anti-proliferative activity”. For the same molecule, in data set [8], the “DPPH radical scavenging activity versus reference antioxidants” value is given as “stronger”. For the same molecule, the anti-inflammatory effects result in [9] is on record as “potent anti-inflammatory effects”. Also, the thermal stability result in data set [10] is on record as “thermolabile”. Moreover, the 50% inhibitory concentration (IC50) in data set [11] was 2100 ± 57 nM; in data set [12], 920 ± 11 nM; in [13] it was 15000 ± 288 nM.
Take `O=C(OC[C@H]1O[C@@H](OC(=O)c2cc(O)c(O)c(OC(=O)c3cc(O)c(O)c(O)c3)c2)[C@H](OC(=O)c2cc(O)c(O)c(OC(=O)c3cc(O)c(O)c(O)c3)c2)[C@@H](OC(=O)c2cc(O)c(O)c(OC(=O)c3cc(O)c(O)c(O)c3)c2)[C@@H]1OC(=O)c1cc(O)c(O)c(OC(=O)c2cc(O)c(O)c(O)c2)c1)c1cc(O)c(O)c(OC(=O)c2cc(O)c(O)c(O)c2)c1` [tannic acid]: the growth inhibition entry in data set [14] is on record as “growth inhibitory”.
Turning to `O=C1OC[C@H]2OC(O)[C@H](O)[C@@H](O)[C@@H]2OC(=O)c2cc(O)c(O)c(O)c2-c2c(O)c(O)c3oc(=O)c4c(c(O)c(O)c5oc(=O)c2c3c54)-c2c1cc(O)c(O)c2O` (mixture of isomers) [punicalin], the “blocking of binding of HIV rgp120 to CD4” value in data set [15] is “block the binding”. In addition, the toxicity to lymphocytes entry in data set [16] was “not toxic”.
With `O=C1O[C@H]2[C@@H]3OC(=O)c4cc(O)c(O)c(O)c4-c4c(O)c(O)c5oc(=O)c6c(c(O)c(O)c7oc(=O)c4c5c76)-c4c(cc(O)c(O)c4O)C(=O)OC[C@H]3OC(O)[C@@H]2OC(=O)c2cc(O)c(O)c(O)c2-c2c1cc(O)c(O)c2O` (mixture of isomers) [punicalagin], the “inhibition of HSV-1 entry” value in data set [1] is listed as “inhibit HSV-1 entry”.
With `O=C(O)CC1C(=O)OC2C(COC(=O)c3cc(O)c(O)c(O)c3)OC(OC(=O)c3cc(O)c(O)c(O)c3)C(OC(=O)c3cc(O)c(O)c4c3C1C(O)C(=O)O4)C2OC(=O)c1cc(O)c(O)c(O)c1` [Chebulinic acid, 1,3,6-tri-O-galloyl-2,4-chebuloyl-beta-D-glucose], the “melanin inhibitory activity versus reference agents” value in data set [2] is given as “stronger”. Also, the antifibrotic activity result in data set [3] is “antifibrotic activity”. Moreover, the growth inhibition entry in [14] is recorded as “growth inhibitory”. In [8], the “DPPH radical scavenging activity versus reference antioxidants” value was “stronger”. Moreover, in data set [15], the “blocking of binding of HIV rgp120 to CD4” value is reported as “block the binding”. In data set [10], the thermal stability entry is on record as “thermolabile”. Also, the anti-tumor properties entry in data set [17] is given as “anti-tumor properties”. Further, in [18], the hemoglobin synthesis entry is “inhibited the hemoglobin synthesis”. For the same molecule, the toxicity to lymphocytes entry in [16] is “not toxic”. Also, the blood pressure effect entry in [19] is “blood pressure lowering effect”.
On to `O=c1oc2c(O)c(O)cc3c(=O)oc4c(O)c(O)cc1c4c23` [ellagic acid], for which the growth inhibition result in data set [14] was “growth inhibitory”.
In the case of `O=C(O)C[C@H](C(=O)O)[C@H]1c2c(cc(O)c(O)c2O)C(=O)O[C@@H]1C(=O)O` [chebulic acid], in data set [20], the “blocking of CTL-mediated cytotoxicity” value is given as “blocked”.
Turning to `O=C(O[C@H]1[C@@H]2OC(=O)c3cc(O)c(O)c(O)c3-c3c(cc(O)c(O)c3O)C(=O)OC[C@H]2OC(O)[C@@H]1OC(=O)c1cc(O)c(O)c(O)c1)c1cc(O)c(O)c(O)c1` (stereo partly shown) [Tellimagrandin I], in data set [17], the anti-tumor properties result was “anti-tumor properties”.
